Source: patent publication US20220073557A1, “FLUORINATED BILE ACIDS” (NZP UK LIMITED, priority 2018, published 2022)
Read-outs that look alike come from different tables or passages of the source.

Columns and labels:
[1] = system: sporadic PD patient fibroblast lines; test: Seahorse assay (oxygen consumption, extracellular acidification rate) in sPD fibroblasts; assay type: cell-based, human
Protocol: Fibroblasts are plated into Seahorse 24 well plates with 50,000 cells per well. Cells are left to attach for 2 days. Media is changed to Seahorse DMEM media with glucose and sodium pyruvate and left to equilibrate at 37 degrees normal air CO2 for 1 hour. The plate is entered into the Seahorse machine and run on a program of mix (2 minutes), wait (3 minutes) and measure (3 minutes). After three measurements of basal respiration and ECAR; 0.5 μM oligomycin is injected after which another three measurements are taken; then 0.5 μM of FCCP is injected and three measurements taken and finally 1 μM rotenone is injected and three measurements taken. After all measurements are complete, cells are stained with 10 μM Hoescht and imaged using the InCell to count the number of cells per well for normalisation. This classical ritochondrial stress test experimental protocol allows us to calculate the basal mitochondrial respiration, ATP linked respiration (the amount which is coupled to ATP generation), the maximal and spare respiratory capacity, the non-mitochondrial respiration rate and the extracellular acidification rate which is a proxy measure of glycosolysis.

[2] = system: dopaminergic neurons derived from sPD patients (iNeurons); test: Mitochondrial function and neuronal morphology measurements in iNeurons from sPD patients; assay type: cell-based, human; settings: for EC50: Homo sapiens, Neuron
Protocol: Fibroblasts were cultured in DMEM (Invitrogen) and routinely subcultured every 3-5 days using trypsin to dissociate them.
(§1) Briefly, iNPCs are plated in a 6-well plate and cultured for 2 days in DMEM/F-12 medium with Glutamax™ supplemented with 1% NEAA, 2% B27 (Gibco) and 2.5 μM of DAPT. On day 3, DAPT is removed and the medium is supplemented with 1 μM smoothened agonist (SAG) and FGF8 (75 ng/ml) for additional 10 days. Neurons are replated at this stage. Subsequently SAG and FGF8 are withdrawn and replaced with BDNF (30 ng/ml), GDNF (30 ng/ml), TGF-b3 […] and dcAMP (2 mM, Sigma) for 15 days.
Cells are plated in 96 well plates; for live imaging cells are incubated for one hour at 37 degree with 80 nM tetramethlyrhodamine (TMRM), 1 μM LysoTracker® Green (Invitrogen) and Hoechst Stain solution (Sigma) at 1 μM before imaging using Opera Phenix™. Cellular ATP measurements are undertaken using ATPlite kit (Perkin Elmer) as per manufacturer's instructions. Mitochondrial reactive oxygen species generation was assessed using mitochondrial NpFR2 (probe; a kind gift from Dr Liz New, University of Sydney, Australia) at 20 μM and Hoechst stain solution at 1 μM for 30 mins at 37° C., then the dyes are removed and cells images using Opera Phenix™. Images generated from the live imaging experiments were analysed using Harmony® (Perkin Elmer software). We developed protocols in order to segment nucleus, cell boundary and processes, mitochondria, lysosomes, autophagosomes. We only analysed the z projection images collected from the z stacks.

[3] = system: dopaminergic neurons derived from sPD patients (iNeurons); test: Activated caspase 3 immunofluorescence staining in iNeurons; assay type: cell-based, human; settings: untreated sPD 162
Protocol: as §1
Cells are plated into 96 well plates and fixed using 4% paraformaldehyde for 30 minutes. After PBS washes cells are permeabilised using 0.1% Triton™ X-100 for 10 minutes and blocked using 5% goat serum for 1 hour. Cells are incubated with primary antibodies tyrosine hydroxylase (St John's Laboratory); DAT (Abcam); Tuj (Millipore); Tom20 (BD Biosciences); activated caspase 3 (Cell Signaling); alpha synuclein (Cell Signaling); phosphorylated alpha synuclein (Millipore) at 4° C. for 16 hours. Cells are washed using PBS-Tween® and incubated with Alexa Fluor™-conjugated secondary antibodies 488 and 568 (Invitrogen) and Hoescht (Sigma) 1 μM prior to imaging. Imaging was performed using the Opera Phenix™ high content imaging system (Perkin Elmer).

[4] = system: dopaminergic neurons derived from sPD patients (iNeurons); test: Dopamine ELISA in iNeurons; assay type: cell-based, human; settings: untreated sPD 0
Protocol: as §1
Dopamine ELISA is performed using Dopamine research ELISA kit (Labor Diagnostika Nord GmbH&Co. KG) as per manufacturers instructions. Dopamine release is obtained incubating the cells at 37° C. using three different conditions at the same time per line. Medium is removed in all wells then the first well is incubated with HBSS with Ca^2+ and Mg^2+ (Gibco by Life Technologies) for 30 minutes, the second well is incubated in HBSS with Ca^2+ and Mg^2+ for 15 minutes and then 56 mM KCl (Fisher chemical) is added for another 15 minutes and the third well is incubated with HBSS without Ca^2+ and Mg^2+ (Gibco by Life Technologies) but with 2 mM EDTA for 15 min and then 56 mM KCl is added for another 15 minutes. Straight away media is collected in an eppendorf and cells are harvested using Accutase®, centrifuge at 400 g for 4 min and resuspended in 10 μl of PBS. […]

[5] = system: mitochondrial respiratory chain complex I; test: Complex I assay, whole brain homogenate of dosed wild type mice; assay type: in vivo; settings: wild type mouse whole brain homogenate, FIG. 3
Protocol: (§2) Ex vivo mice brain was homogenated in a buffer of 250 mM sucrose, 20 mM HEPES, 3 mM EDTA, pH 7.5 at 4° C. Homogenisation was carried out using a Dounce homogenizer, for cortex samples, and by repetitive passage through a 0.5 mm syringe for isolated striatum. Samples were then incubated with 30 μl of detergent from the AbCam colorimetric Complex I assay kit on ice for 20 minutes. Samples are then centrifuged at 13,000 rpm for 30 mins. Triplicate samples per condition were blocked using the kit blocking buffer on the AbCam colorimetric Complex I assay kit plate for 3 hours. Samples are then washed using the kit wash buffer 3 times before the addition of the kit assay buffer containing NADH and colorimetric dye. The assay plate is read on a plate reader in a kinetic assay programme reading 450 nm in a 30 second interval for 50 minutes.

[6] = system: mitochondrial respiratory chain complex I; test: Complex I assay, left striatum brain homogenate of mice dosed with or without MPTP; assay type: in vivo, mouse; settings: for Complex I activity with concurrent MPTP treatment: left striatum
Protocol: as §2

[7] = system: sAD and familial AD (PSEN1 mutants) patient fibroblasts; test: Total cellular ATP levels in Alzheimer's disease patient fibroblasts; assay type: cell-based, human; settings: 24 hour treatment at 100 nM, 21% restores to control levels
Protocol: Briefly, fibroblasts were cultured as and plated into white 384 well plates with 5000 cells per well in 50 μl of media volume. The plates are left overnight in an incubator to allow the fibroblasts to adhere to the plate surface. The following morning the Glucose based medium is replaced with 25 μl of Galactose based medium. The compounds are added to the plates using a ECHO 550 liquid handling system. The wells were dosed to provide an 8-point concentration range of 0.06 nM-300 nM of compound. After dosing the wells are topped up with a further 25 μl of Galactose based medium and then left in an incubator for 24 hours. Following this incubation the medium is removed from the plate and the wells are washed twice with sterile PBS. The wells are filled with 25 μl of Sterile PBS followed by 12.5 μl of Lysis solution from the ATPlite™ Luminescence ATP detection assay system (Perkin Elmer), including 16 cell free wells to use as blank controls. The plate is then placed on a rotary shaker for 5 mins at 700 rpm. Following the shaking 12.5 μl of ATP substrate solution (Perkin Elmer) is added to each well and a further 5 min of shaking. The plate is then placed in darkness for 10 minutes prior to reading. Using a PHERAStar® plate reader, luminescence intensity is recorded. Following the ATP assay the plates are immediately assayed for DNA content in a CyQUANT® assay.
Immediately following The ATP assay DNA content is assessed with the CyQUANT® NF Cell Proliferation Assay Kit (ThermoFisher). CyQUANT® buffer is prepared immediately before the assay and is comprised of 1 ul CyQUANT® dye per ml×1 HBSS solution. 12.5 ul of CyQUANT® buffer is added to each well. Plate left in incubator for 1 hour then read on a PHERAStar® Plate reader with excitation at 497 nm and emission at 520 nm.
Data shown in the Table 6 below is the mean increase in ATP levels after 24 hour treatment with compounds at 100 nM concentration.

C[C@H](CCC(=O)O)[C@H]1CC[C@H]2[C@@H]3[C@@H](O)C[C@@H]4C[C@@H](O)C(F)(F)C[C@]4(C)[C@H]3CC[C@]12C [Compound 7, 2,2-difluoro-3β,7β-dihydroxy-5β-cholanic acid]
Mitochondrial respiration (basal, maximal and ATP linked respiration; oxygen consumption) ([1]; 6 sPD fibroblast lines, dosed at EC90 (UDCA 100 nM, Compound 7 50 nM), FIG. 1A-1C): significantly improves all three mitochondrial parameters
Extracellular acidification rate (ECAR, proxy measure of glycolysis) ([1]; 6 sPD fibroblasts, FIG. 2): significantly improved
EC90 ([1]; Homo sapiens, Fibroblast, read-out: EC90 concentration): 50 nM
EC50 ([2]; read-out: ATP EC50 (nM)): 0.8 nM
EC50 ([2]; read-out: MMP EC50 (nM)): 0.52 nM
Neuronal morphology (elongation; % controls) ([2]; iNeurons from sPD patients, untreated sPD 48): 78 % controls
ATP normalisation (% of controls) ([2]; iNeurons from sPD patients, untreated sPD 50): 101 % of controls
MMP normalisation (% of controls) ([2]; iNeurons from sPD patients, untreated sPD 52): 100 % of controls
ROS (Normalisation) (% controls) ([2]; iNeurons from sPD patients, untreated sPD 115): 103 % controls
Activated caspase 3 levels [3]: 100 % of level in iNeurons from Controls
Dopamine level (increase in dopamine release) [4]: ~5% increase in
Increase in Complex I activity compared to untreated controls ([5]; 4 mg/kg dose): approximately 380%
Increase in Complex I activity compared to untreated controls ([5]; 12 mg/kg dose): approximately 800%
Increase in complex I activity over untreated controls ([6]; left striatum mouse brain homogenate, Vehicle+12 mg Compound 7 alone, FIG. 4): approximately 30%
Complex I activity with concurrent MPTP treatment ([6]; MPTP + 1 mg Compound 7, p<0.01 vs MPTP alone): retains complex I at normal levels
Complex I activity with concurrent MPTP treatment ([6]; MPTP + increased doses (4 mg, 12 mg) of Compound 7): appears to prevent any loss of complex I activity by MPTP
% increase over vehicle treated (mean increase in ATP levels) [7]: 24%
